According to patent EP0648744A1, “Phenylalkanolamine derivatives as antagonists of the NMDA receptor” (F. HOFFMANN-LA ROCHE AG, priority 1993, dated 1995):

What was measured:
embryonic rat cortices = experiment: Acute glutamate neurotoxicity in cortical cell cultures (lactate dehydrogenase release); format: cell-based; details: neuronal degeneration, 500 µM glutamate for 5 to 30 minutes at room temperature, lactate dehydrogenase in supernatant after overnight at 37°C, read-out: IC₅₀
Method: 2. Acute Glutamate Neurotoxicity
Single cell suspensions were prepared from embryonic rat cortices (E16-17) by digestion with dispase 2.4 U/ml (BOEHRINGER) and subsequent trituration with fire polished pasteur pipettes. The cells were then plated on poly-D-lysine (SIGMA) coated 96 well microtiter plates (NUNC, 10⁵ cells/well) in a total volume of 100 µl Dulbeccos modified essential medium (DMEM, GIBCO) supplemented with 10% horse serum and penicillin/streptomycin (SIGMA). 5 days later, non-neuronal cell division was halted by exposure to […] combined with a 50% exchange of culture medium. The cultures were used for neurotoxicity assays from 8-12 days in vitro.
Acute glutamate toxicity was performed according to D.W. Choi. J. Koh and S. Peters, J. Neurosci. 8 (1988) 185-196, in 100 µl of a control salt solution (CSS: 120 mM NaCl, 5.4 mM KCl, 0.8 mm MgCl₂, 1.8 mM CaCl₂, 25 mM Tris HCl (pH 7.4 at 25°C) and 15 mM glycose) with 500 µM glutamate for 5 to 30 minutes at room temperature with or without addition of substances to be tested.
After washing, the cultures were maintained in 100 µl CSS overnight at 37°C. For quantitation of neurodegeneration, lactate dehydrogenase was measured in the cell culture supernatant as described by J.G. Klingman, D.M. Hartley and D.W. Choi, J. Neurosci. Meth. 31 (1990) 47-51 using a BIOMEK workstation (BECKMAN). […] From dose response curves IC₅₀ values were calculated.

NMDA receptor = experiment: 3H-MK 801 (dizocilpine) binding in vitro, rat brain membranes; details: displacement of 5 nM ³H-MK 801, washed rat brain membranes; high affinity values determined from biphasic displacement curves; read-out: IC₅₀
Method: 1. ^3H-MK 801 (dizocilpine) binding in vitro
³H-MK 801 binding was performed as described in Ransom, R.W. and Stec, N.L., J. Neurochem. 51 (1988) 830-836, with extensively washed rat brain membranes prepared according to the following scheme. Frozen whole rat brain was thawed and cerebellum and medulla oblongata were removed on ice. The tissue was then homogenized with an Ultra Turrax (maximal energy) during 30 sec at 4°C in 50 volumes of Tris·HC1 (5mM) with ethylenediaminetetraacetic acid (EDTA) disodium (10 mM, pH = 7.4). The homogenate was centrifuged at 48'000 x g for 10 min. The pellet was rehomogenized with the same volume of the same buffer and the homogenate was then incubated at 37°C for 10 min. After centrifugation the pellet was rehomogenized under the same conditions and frozen at -80°C in 35 ml fractions for at least 16 hours and not more than 2 weeks.
On the day of experiment, the homogenate was thawed 15 minutes at 37°C and centrifuged as above. The pellet was rehomogenized in 25 volumes of Tris·HC1 buffer (5mM, pH = 7.4) and the homogenate was recentrifuged. This procedure was repeated twice. The final pellet was rehomogenized in 25 volumes of Tris·HC1 buffer (5 mM, pH = 7.4) related to the original wet weight and used as such in the assay. Final concentration in the assay was 20 mg/ml.
300 µl of tracer solution (final concentration 5 nM ³H-MK 801) in Tris·HC1 buffer (5 mM, pH 7.4) were incubated with 100 µl of test solution (100 µl of Tris·HC1 buffer for the total binding or 100 µl of buffer plus N-(1-(2-thienyl)cyclohexyl)piperidine (TCP) (final concentration 0.1 µM) for non specific binding). Glutamate, glycine and spermidine (final concentrations 1nM) were added together in 100 µl volume. 500 µl of homogenate (final concentration 20 mg/ml) were then added in the plastic reaction tubes. After 2 hours of incubation at room temperature, the suspension was filtered (Whatmann GF/B, presoaked in 0.05% polyethylenimine for 2 hours) and washed 5 times with 3 ml of cold buffer. The air-dried (3 min) filters were counted in 10 ml of Ultima-gold (Packard) after agitation (10 min.) and standing for 2 hours at 3°C in vials.
These are high affinity values determined from biphasic displacement curves.

| IC50 (NMDA receptor) [nM] | Structure (SMILES) | IC50 (embryonic rat cortices) [nM] |
| --- | --- | --- |
| 530 | CC(CCN1CCC(Cc2ccccc2)CC1)Cc1ccc(O)cc1 (racemic) [Ex. 6, rac.-4-[2-Methyl-4-[4-(phenylmethyl)-1-piperidinyl]butyl]phenol] | 3500 |
| 1400 | CC(Cc1ccccc1)CN1CCC(Cc2ccccc2)CC1 (racemic) [Ex. 21, rac.-1-(2-Methyl-3-phenylpropyl)-4-(phenylmethyl)piperidine] | 13000 |
| 300 | C[C@@H](CCN1CCC(Cc2ccccc2)CC1)[C@@H](O)c1ccc(O)cc1 (relative stereo) [Ex. 5, (R*,S*)-rac.-α-(4-Hydroxyphenyl)-β-methyl-4-(phenylmethyl)-1-piperidinebutanol] | 1900 |
| 900 | C[C@@H](CN1CCC(Cc2ccccc2)CC1)C(=O)c1ccc(OCc2ccccc2)cc1 [Ex. 12, (S)-2-Methyl-1-[4-(phenylmethoxy)phenyl]-3-[4-(phenylmethyl)-1-piperidinyl]-1-propanone] | 66000 |

Further lines, the compound ahead of its results:

| Structure (SMILES) | IC50 (NMDA receptor) [nM] | IC50 (embryonic rat cortices) [nM] |
| --- | --- | --- |
| CC(Cc1ccc(O)cc1)C(C)N1CCC(Cc2ccccc2)CC1 (racemic) [Ex. 10, rac.-4-[2-Methyl-3-[4-(phenylmethyl)-1-piperidinyl]butyl]phenol] | 150 | 120 |
| C[C@@H](CN1CCC(Cc2ccccc2)CC1)[C@@H](O)c1ccc(OCc2ccccc2)cc1 (relative stereo) [Ex. 7, (R*,S*)-rac.-β-Methyl-α-[4-(phenylmethoxy)phenyl]-4-(phenylmethyl)-1-piperidinepropanol] | 1300 | 64000 |
| C[C@@H](CN1CCC(Cc2ccccc2)CC1)[C@@H](O)c1ccc(O)cc1 (relative stereo) [Ex. 8, (R*,S*)-rac.-α-(4-hydroxyphenyl)-β-methyl-4-(phenylmethyl)-1-piperidinepropanol] | 5 | 40 |
| C[C@H](CN1CCC(Cc2ccccc2)CC1)[C@@H](O)c1ccc(O)cc1 (relative stereo) [Ex. 9, (R*,R*)-rac.-α-(4-Hydroxyphenyl)-β-methyl-4-(phenylmethyl)-1-piperidinepropanol] | 6 | 110 |
| C[C@@H](CN1CCC(Cc2ccccc2)CC1)[C@@H](O)c1ccc(O)cc1 [Ex. 15, [R-(R*S*)]-α-(4-Hydroxyphenyl)-β-methyl-4-(phenylmethyl)-1-piperidinepropanol] | 1.3 | 60 |
| C[C@H](CN1CCC(Cc2ccccc2)CC1)[C@H](O)c1ccc(O)cc1 [Ex. 16, [S-(R*S*)]-α-(4-Hydroxyphenyl)-β-methyl]-4-(phenylmethyl)-1-piperidinepropanol] | 3 | 80 |
